The target of the test is T1, Soluble acetylcholine receptor (Aplysia californica, UniProt Q8WSF8).
T1 sequence (Q8WSF8 whole entry): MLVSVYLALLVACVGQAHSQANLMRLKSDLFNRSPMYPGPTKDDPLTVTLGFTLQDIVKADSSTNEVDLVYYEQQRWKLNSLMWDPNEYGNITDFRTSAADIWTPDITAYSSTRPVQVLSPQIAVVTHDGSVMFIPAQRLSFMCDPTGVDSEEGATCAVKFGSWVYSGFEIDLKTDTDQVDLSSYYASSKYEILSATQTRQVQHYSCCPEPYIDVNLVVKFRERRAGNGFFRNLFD
The test can be described thus: Displacement [125I]alpha-bungarotoxin from untagged Aplysia californica AChBP expressed in Sf9 cells by competitive binding assay.

`C[C@@H]1NC(=O)[C@@H]2CSSC[C@H](NC(=O)CN)C(=O)N[C@@H](CSSC[C@@H](C(=O)O)NC(=O)[C@H](CCCNC(=N)N)NC(=O)[C@H](Cc3c[nH]c4ccccc34)NC1=O)C(=O)N[C@@H](CO)C(=O)N[C@@H](CC(=O)O)C(=O)N1CCC[C@H]1C(=O)N[C@@H](CCCNC(=N)N)C(=O)N2` gave an IC50 of 33 nM.

Source of the values: ChEMBL document CHEMBL3758090, “Investigation of α-conotoxin unbinding using umbrella sampling” (Bioorg Med Chem Lett, 2016).
